Data published in patent publication US4091006A, “Esters of 3-hydroxyindone compounds” (priority 1975, dated 1978).

Columns and labels:
[1] = system: two-spotted mite; assay: Small scale field tests, mite control on Tendergreen bean plants; type: in vivo, Tetranychus urticae (Koch)
Procedure: Selected enol ester compositions were evaluated in small scale field tests to determine whether the excellent miticidal properties observed in greenhouse testing would be obtained under actual conditions of field use.
In Test I 500 ppm aqueous dispersions were prepared as described above. In tests II and III various dilutions of the test compounds ranging from 125 ppm to 1000 ppm were prepared and used. In each case the test dispersions were applied to a minimum of two replicate test plots measuring five feet in length and containing healthy young Tendergreen bean plants which had previously been infested with two-spotted mite (Tetranychus urticae (Koch)). Dispersions of the test compounds at each concentration level were applied to individual replicate plots using 1/2 gallon garden sprayers equipped with spray nozzles to apply approximately 250 ml. of test solution to each replicate. The effectiveness of the treatment was determined at intervals following application, by microscopic examination of five leaves selected at random from each replicate plot. The degree of effectiveness for each leaf was rated on a scale of from 1 to 5 with 1 indicating no control in reference to a standard sprayed with a mixture of solution less test compound and 5 indicating complete control. The results obtained from inspection of sample leaves were then averaged to give a numerical indication of the degree of control for each compound tested at the concentration applied.

[2] = system: Perennial rye grass, crabgrass, red root pigweed, mustard; assay: Preliminary Herbicide Seed Germination Test; settings: each rated 1 (no injury) to 5 (no seedlings emerged)
[3] = system: egg of the two-spotted mite; assay: Mite Ovicide Test; type: in vivo, Tetranychus urticae (Koch); design: key to Mite Ova rating: 1: no mortality; 3: an approximately 50% mortality; 5: 100% mortality; settings: for Mite Ova rating: spray on eggs, 4 days
Source text: (§1) The test procedures were as follows:
The plants were allowed to dry thoroughly.
(§2) Compositions were rated on the basis of percent kill with a rating of 1 indicating no mortality; 3 signifying an approximately 50% mortality and 5 indicating 100% mortality at the indicated dosage.

[4] = system: adults and nymphal stages of the two-spotted mite; assay: Mite Foliage Spray Test; type: in vivo, Tetranychus urticae (Koch); design: key: 1: no mortality; 3: an approximately 50% mortality; 5: 100% mortality; settings: 4 days
Source text: as §1, §2

[5] = rating/maximum 40: 100 and 1000 ppm, four species, 10-12 days
[6] = rating/maximum 30: 100 and 1000 ppm, crabgrass omitted
[7] = rating/maximum 20: 100 ppm only, four species
[8] = rating/maximum 15: 100 ppm only, crabgrass omitted

## Cc1cc(C)c(C2C(=O)c3ccccc3C2=O)c(C)c1 [Compound A, 2-(2',4',6'-trimethylphenyl)-1,3-indandione, reference compound]
[1]; Test I, 500 ppm, 4 days, scale 1 (no control) to 5 (complete control)
  Average mite control rating, 1st Reading: 1.0
[1]; Test I, 500 ppm, 8 days, scale 1 to 5
  Average mite control rating, 2nd Reading: 1.0
[1]; Test II, 250 ppm, 3 days, scale 1 to 5
  Average mite control rating, 1st Reading: 1.0
[1]; Test II, 250 ppm, 7 days, scale 1 to 5
  Average mite control rating, 2nd Reading: 1.3
[1]; Test II, 500 ppm, 3 days, scale 1 to 5
  Average mite control rating, 1st Reading: 2.7
[1]; Test II, 500 ppm, 7 days, scale 1 to 5
  Average mite control rating, 2nd Reading: 1.7
[1]; Test III, 250 ppm, 3 days, scale 1 to 5
  Average mite control rating, 1st Reading: 1.0
[1]; Test III, 250 ppm, 7 days, scale 1 to 5
  Average mite control rating, 2nd Reading: 2.0
[1]; Test III, 500 ppm, 3 days, scale 1 to 5
  Average mite control rating, 1st Reading: 1.3
[1]; Test III, 500 ppm, 7 days, scale 1 to 5
  Average mite control rating, 2nd Reading: 1.7
[1]; Test III, 1000 ppm, 3 days, scale 1 to 5
  Average mite control rating, 1st Reading: 3.3
[1]; Test III, 1000 ppm, 7 days, scale 1 to 5
  Average mite control rating, 2nd Reading: 3.3
[1]; Test III, 1000 ppm, 21 days, scale 1 to 5
  Average mite control rating, 3rd Reading: 2.3

## Cc1cc(C(C)(C)C)cc(C)c1C1=C(OC(=O)C(C)(C)C)c2ccccc2C1=O [2-(2',6'-Dimethyl-4'-t-butylphenyl)-3-(pivaloyloxy)indone]
[2]; [5]
  Herbicide (total preemergence rating): 9/40
[3]
  Mite Ova rating: 1
[4]
  Mite Adult rating: 1

## Cc1cc(C)c(C2=C(OC(=O)c3ccc(Cl)c(Cl)c3)c3ccccc3C2=O)c(C)c1 [3-(3,4-Dichlorobenzoyloxy)-2-(2',4',6'-trimethylphenyl)indone]
[2]; [5]
  Herbicide (total preemergence rating): 32/40
[3]
  Mite Ova rating: 5 (100% mortality)
[4]
  Mite Adult rating: 5 (100% mortality)

## CC(C)(C)C(=O)OC1=C(c2ccccc2Br)C(=O)c2ccccc21 [2-(2'-Bromophenyl)-3-(pivaloyloxy)indone]
[2]; [5]
  Herbicide (total preemergence rating): 14/40
[3]
  Mite Ova rating: 5 (100% mortality)
[4]
  Mite Adult rating: 5 (100% mortality)

## Cc1ccc(C(=O)OC2=C(c3c(Cl)cccc3Cl)C(=O)c3ccccc32)cc1 [3-(4-Methylbenzoyloxy)-2-(2',6'-dichlorophenyl)indone]
[2]; [6]
  Herbicide (total preemergence rating): 22/30
[3]
  Mite Ova rating: 5 (100% mortality)
[4]
  Mite Adult rating: 5 (100% mortality)

## O=C(OC1=C(c2c(Cl)cccc2Cl)C(=O)c2ccccc21)c1ccccc1 [3-(Benzoyloxy)-2-(2',6'-dichlorophenyl)indone]
[2]; [5]
  Herbicide (total preemergence rating): 32/40
[3]
  Mite Ova rating: 5 (100% mortality)
[4]
  Mite Adult rating: 5 (100% mortality)

## Cc1cc(C)c(C2=C(OC(=O)N(C)c3ccccc3)c3ccccc3C2=O)c(C)c1 [2-(2',4',6'-Trimethylphenyl)-3-(N-methyl-N-phenylcarbamoyloxy)indone]
[2]; [7]
  Herbicide (total preemergence rating): 10/20
[3]
  Mite Ova rating: 3 (an approximately 50% mortality)
[4]
  Mite Adult rating: 1

## Cc1cc(C)c(C2=C(OC(=O)Cc3ccccc3)c3ccccc3C2=O)c(C)c1 [2-(2',4',6'-Trimethylphenyl)-3-(phenylacetoxy)indone]
[2]; [7]
  Herbicide (total preemergence rating): 19/20
[3]
  Mite Ova rating: 5 (100% mortality)
[4]
  Mite Adult rating: 5 (100% mortality)

## Cc1cc(C)c(C(=O)OC2=C(c3c(C)cc(C)cc3C)C(=O)c3ccccc32)c(C)c1 [3-(2,4,6-Trimethylbenzoyloxy)-2-(2',4',6'-trimethylphenyl)indone]
[2]; [8]
  Herbicide (total preemergence rating): 10/15
[3]
  Mite Ova rating: 1
[4]
  Mite Adult rating: 1

## Cc1cc(C)c(C2=C(OC(=O)c3ccc([N+](=O)[O-])cc3)c3ccccc3C2=O)c(C)c1 [3-(4-Nitrobenzoyloxy)-2-(2',4',6'-trimethylphenyl)indone]
[2]; [6]
  Herbicide (total preemergence rating): 26/30
[3]
  Mite Ova rating: 5 (100% mortality)
[4]
  Mite Adult rating: 5 (100% mortality)

## Cc1cc(C)c(C2=C(OC(=O)c3c(C)cccc3C)c3ccccc3C2=O)c(C)c1 [3-(2,6-Dimethylbenzoyloxy)-2-(2',4',6'-trimethylphenyl)indone]
[2]; [7]
  Herbicide (total preemergence rating): 4/20
[3]
  Mite Ova rating: 1
[4]
  Mite Adult rating: 1

## CC(C)(C)C(=O)OC1=C(c2ccc(Cl)cc2)C(=O)c2ccccc21 [2-(4'-Chlorophenyl)-3-(pivaloyloxy)indone]
[2]; [7]
  Herbicide (total preemergence rating): 4/20
[3]
  Mite Ova rating: 1
[4]
  Mite Adult rating: 1

## Cc1cc(C)c(C2=C(OC(=O)c3cccc([N+](=O)[O-])c3)c3ccccc3C2=O)c(C)c1 [3-(3-Nitrobenzoyloxy)-2-(2',4',6'-trimethylphenyl)indone]
[2]; [6]
  Herbicide (total preemergence rating): 28/30
[3]
  Mite Ova rating: 5 (100% mortality)
[4]
  Mite Adult rating: 5 (100% mortality)

## CC(C)(C)C(=O)OC1=C(c2ccccc2Cl)C(=O)c2ccccc21 [2-(2'-Chlorophenyl)-3-(pivaloyloxy)indone]
[2]; [5]
  Herbicide (total preemergence rating): 18/40
[3]
  Mite Ova rating: 5 (100% mortality)
[4]
  Mite Adult rating: 5 (100% mortality)

## CCCCC(CC)C(=O)OC1=C(c2ccccc2C)C(=O)c2ccccc21 (centres unmarked) [3-(2-Ethylhexanoyloxy)-2-(2'-methylphenyl)indone]
[2]; [7]
  Herbicide (total preemergence rating): 4/20
[3]
  Mite Ova rating: 5 (100% mortality)
[4]
  Mite Adult rating: 3 (an approximately 50% mortality)

## Cc1cc(C)c(C2=C(OC(=O)c3ccc(Cl)cc3)c3ccccc3C2=O)c(C)c1 [3-(4-Chlorobenzoyloxy)-2-(2',4',6'-trimethylphenyl)indone]
[2]; [6]
  Herbicide (total preemergence rating): 24/30
[3]
  Mite Ova rating: 5 (100% mortality)
[4]
  Mite Adult rating: 5 (100% mortality)

## O=C(OC1=C(c2c(Cl)cccc2Cl)C(=O)c2ccccc21)c1cccc([N+](=O)[O-])c1 [3-(3-Nitrobenzoyloxy)-2-(2',6'-dichlorophenyl)indone]
[2]; [6]
  Herbicide (total preemergence rating): 26/30
[3]
  Mite Ova rating: 5 (100% mortality)
[4]
  Mite Adult rating: 5 (100% mortality)

## O=C(OC1=C(c2c(Cl)cccc2Cl)C(=O)c2ccccc21)c1cc(Cl)cc(Cl)c1 [3-(3,5-Dichlorobenzoyloxy)-2-(2',6'-dichlorophenyl)indone]
[2]; [6]
  Herbicide (total preemergence rating): 24/30
[3]
  Mite Ova rating: 5 (100% mortality)
[4]
  Mite Adult rating: 5 (100% mortality)

## 3-(Acetoxy)-4(7)-methyl-2-(2',6'-dichlorophenyl)indone
[2]; [5]
  Herbicide (total preemergence rating): 37/40
[3]
  Mite Ova rating: 5 (100% mortality)
[4]
  Mite Adult rating: 5 (100% mortality)

## Cc1ccccc1C(=O)OC1=C(c2c(Cl)cccc2Cl)C(=O)c2ccccc21 [3-(2-Methylbenzoyloxy)-2-(2',6'-dichlorophenyl)indone]
[2]; [5]
  Herbicide (total preemergence rating): 31/40
[3]
  Mite Ova rating: 5 (100% mortality)
[4]
  Mite Adult rating: 5 (100% mortality)

## Cc1cc(C)c(C2=C(OC(=O)OC3=C(c4c(C)cc(C)cc4C)C(=O)c4ccccc43)c3ccccc3C2=O)c(C)c1 [Bis[2-(2',4',6'-Trimethylphenyl)Indon-3-yl]Carbonate]
[2]; [7]
  Herbicide (total preemergence rating): 15/20
[3]
  Mite Ova rating: 5 (100% mortality)
[4]
  Mite Adult rating: 5 (100% mortality)

## CCCCCCCCCCCC(=O)OC1=C(c2c(C)cc(C)cc2C)C(=O)c2ccccc21 [2-(2',4',6'-Trimethylphenyl)-3-(dodecanoyloxy)indone]
[2]; [7]
  Herbicide (total preemergence rating): 17/20
[3]
  Mite Ova rating: 5 (100% mortality)
[4]
  Mite Adult rating: 5 (100% mortality)

## CCCCN(CCCC)C(=O)OC1=C(c2c(C)cc(C)cc2C)C(=O)c2ccccc21 [2-(2',4',6'-Trimethylphenyl)-3-(N,N-di(butyl)carbamoyloxy)indone]
[2]; [7]
  Herbicide (total preemergence rating): 10/20
[3]
  Mite Ova rating: 1
[4]
  Mite Adult rating: 3 (an approximately 50% mortality)

## Cc1cccc(C)c1C(=O)OC1=C(c2c(Cl)cccc2Cl)C(=O)c2ccccc21 [3-(2,6-Dimethylbenzoyloxy)-2-(2',6'-dichlorophenyl)indone]
[2]; [7]
  Herbicide (total preemergence rating): 4/20
[3]; 500 ppm
  Mite ova kill: About 20%
[3]
  Mite Ova rating: 1
[4]
  Mite Adult rating: 1

## Cc1cc(C)c(C2=C(OC(=O)c3cccnc3)c3ccccc3C2=O)c(C)c1 [2-(2',4',6'-Trimethylphenyl)-3-(3-pyridinecarbonyloxy)indone]
[2]; [7]
  Herbicide (total preemergence rating): 18/20
[3]
  Mite Ova rating: 5 (100% mortality)
[4]
  Mite Adult rating: 5 (100% mortality)

## CCc1cccc(C)c1C1=C(OC(=O)C(C)(C)C)c2ccccc2C1=O [2-(2'-Ethyl-6'-methylphenyl)-3-(pivaloyloxy)indone]
[2]; [8]
  Herbicide (total preemergence rating): 14/15
[3]
  Mite Ova rating: 5 (100% mortality)
[4]
  Mite Adult rating: 5 (100% mortality)
